Where “and” joins values, the source holds several entries; their conditions need not be identical. Equal values may be shown once. Read-outs that look alike come from different tables or passages of the source.
Tests used:
SFRP-1 [1] = biological target: T1, SFRP-1 (Homo sapiens, UniProt Q8N474); assay: Fluorescence polarization binding assay (competitive displacement of a probe compound from SFRP-1); conditions: fluorescence anisotropy, 45 nM SFRP-1, 20 nM probe;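 note: test compound competes with a fluorescent probe held by SFRP-1, seen as a drop in probe anisotropy after incubation in darkness, with anisotropy as function of rising compound dose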
T1 sequence (Q8N474 32-314): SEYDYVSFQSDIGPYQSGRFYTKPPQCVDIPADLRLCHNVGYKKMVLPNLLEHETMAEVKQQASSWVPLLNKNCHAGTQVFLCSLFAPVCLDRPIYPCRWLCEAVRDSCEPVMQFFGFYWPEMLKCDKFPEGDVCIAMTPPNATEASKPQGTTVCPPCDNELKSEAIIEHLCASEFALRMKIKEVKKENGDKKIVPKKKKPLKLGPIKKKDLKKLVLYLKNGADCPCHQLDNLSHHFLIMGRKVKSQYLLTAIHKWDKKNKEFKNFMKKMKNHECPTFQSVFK

SFRP-1 [2] = biological target: T1, SFRP-1; assay: Cell-based assay for in vitro measurement of SFRP-1/SARP2 antagonist activity (U2OS cells co-transfected with 16x TCF-tk-Luciferase reporter, Wnt and hSFRP-1); conditions: for fold induction at 10 µM / fold induction at 15 µM: U2OS; for fold induction at 10 µM: read-out: Fold Induction with SFRP-1, U2OS cells, single dose 10 μM, luciferase reporter, fold induction over SFRP-1 control;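 for all read-outs here: U2OS cells co-transfected with a TCF-tk luciferase reporter, a Wnt vector, hSFRP-1 or empty vector and CMV-βgal, luciferase luminescence read in cell lysates alongside βgal activity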
[3] = read-out: Fold Induction with SFRP-1, Conc 15 μM, with SFRP-1, fold induction over SFRP-1 control, single dose
[4] = read-out: Fold Induction without SFRP-1, Conc 15 μM, without SFRP-1, single dose
[5] = read-out: Fold Induction with SFRP-1, Conc 15 μM, single dose, luciferase reporter, fold induction over SFRP-1 control, cells with SFRP-1
[6] = read-out: Fold Induction without SFRP-1, Conc 15 μM, single dose, luciferase reporter, cells without SFRP-1 (specificity control)

Compound | IC50 (SFRP-1 [1]) | EC50 (SFRP-1 [2]) [nM] | fold induction at 10 µM (SFRP-1 [2]) | fold induction at 15 µM (SFRP-1 [2]; [3]) | fold induction at 15 µM (SFRP-1 [2]; [4]) | fold induction at 15 µM (SFRP-1 [2]; [5]) | fold induction at 15 µM (SFRP-1 [2]; [6])
CCC(CC)C(=O)N(C)CCNS(=O)(=O)c1cc(S(=O)(=O)c2ccccc2)ccc1C(F)(F)F [Example 864, 2-ethyl-N-methyl-N-[2-({[5-(phenylsulfonyl)-2-(trifluoromethyl)phenyl]sulfonyl}amino)ethyl]butanamide] | 300 nM | 1800 | 3.2 | – | – | – | –
CC(C)c1ccc(S(=O)(=O)c2ccc(F)cc2)cc1S(=O)(=O)NC1CCN(C(=S)Nc2ccccc2F)CC1 [Example 691, N-(2-fluorophenyl)-4-[({5-[(4-fluorophenyl)sulfonyl]-2-isopropylphenyl}sulfonyl)amino]piperidine-1-carbothioamide] | 1000 nM | 8600 | 2.8 | – | – | – | –
O=C(c1ccc(=O)[nH]c1)N1CCC(NS(=O)(=O)c2cc(S(=O)(=O)c3ccccc3)ccc2C(F)(F)F)CC1 [Example 1040, N-{1-[(6-oxo-1,6-dihydropyridin-3-yl)carbonyl]piperidin-4-yl}-5-(phenylsulfonyl)-2-(trifluoromethyl)benzenesulfonamide] | 140 nM | 217 | – | – | – | – | –
CCC(O)CNc1ccc(S(=O)(=O)c2ccc(C(C)C)c(S(=O)(=O)NCCn3ccnc3)c2)cc1 (stereo not drawn) [Example 452, 5-({4-[(2-hydroxybutyl)amino]phenyl}sulfonyl)-N-[2-(1H-imidazol-1-yl)ethyl]-2-isopropylbenzenesulfonamide] | 200 nM | – | – | 3.8 | 1 | – | –
O=S(=O)(NC1CCN(c2ccc(C(F)(F)F)cc2)CC1)c1cc(S(=O)(=O)c2ccccc2)ccc1C(F)(F)F [Example 763, 5-(phenylsulfonyl)-2-(trifluoromethyl)-N-{1-[4-(trifluoromethyl)phenyl]piperidin-4-yl}benzenesulfonamide] | 1700 nM | – | 2.7 | – | – | – | –
N#CCCNS(=O)(=O)c1cc(S(=O)(=O)c2ccccc2)ccc1Cl [Example 643, 2-chloro-N-(2-cyanoethyl)-5-(phenylsulfonyl)benzenesulfonamide] | 2400 nM | – | – | – | – | 3.2 | 1
O=C(c1ccc(C(F)(F)F)cc1)N1CCC(NS(=O)(=O)c2cc(S(=O)(=O)c3ccccc3)ccc2Cl)CC1 [Example 658, 2-chloro-5-(phenylsulfonyl)-N-{1-[4-(trifluoromethyl)benzoyl]piperidin-4-yl}benzenesulfonamide] | 800 nM | 6350 | 2.6 | – | – | – | –
Cc1ccc(S(=O)(=O)c2ccccc2)cc1S(=O)(=O)NC1CCN(C(=O)c2ccc(C#N)cc2)CC1 [Example 476, N-[1-(4-cyanobenzoyl)piperidin-4-yl]-2-methyl-5-(phenylsulfonyl)benzenesulfonamide] | 1400 nM | – | – | 2 | 1 | – | –
Cc1cccc(S(=O)(=O)c2ccc(Cl)c(S(=O)(=O)NC3CCOCC3)c2)c1 [Example 604, 2-chloro-5-[(3-methylphenyl)sulfonyl]-N-(tetrahydro-2H-pyran-4-yl)benzenesulfonamide] | 7000 nM | – | – | – | – | 2.2 | 1.1
COP(=O)(Cc1ccc(C(=O)N(C)CCNS(=O)(=O)c2cc(S(=O)(=O)c3ccccc3)ccc2C(F)(F)F)cc1)OC [Example 1006, dimethyl [4-({methyl[2-({[5-(phenylsulfonyl)-2-(trifluoromethyl)phenyl]sulfonyl}amino)ethyl]amino}carbonyl)benzyl]phosphonate] | 180 nM | 8160 | – | – | – | – | –
CC(C)c1ccc(S(=O)(=O)c2ccccc2)cc1S(=O)(=O)NCCc1ccccn1 [Example 671, 2-isopropyl-5-(phenylsulfonyl)-N-(2-pyridin-2-ylethyl)benzenesulfonamide] | 400 nM | 1580 | 3.6 | – | – | – | –
CC(C)(C)OC(=O)N1CC[C@@H](NS(=O)(=O)c2cc(S(=O)(=O)c3ccccc3)ccc2C(F)(F)F)C1 [Example 795, tert-butyl(3R)-3-({[5-(phenylsulfonyl)-2-(trifluoromethyl)phenyl]sulfonyl}amino)pyrrolidine-1-carboxylate] | 80 nM | 140 | 3.8 | – | – | – | –
Cc1ccccc1S(=O)(=O)c1ccc(C(C)C)c(S(=O)(=O)NC2CCOCC2)c1 [Example 541, 2-isopropyl-5-[(2-methylphenyl)sulfonyl]-N-(tetrahydro-2H-pyran-4-yl)benzenesulfonamide] | 1500 nM | – | – | – | – | 3.5 | 1.2
NC(=O)COc1ccc2c(c1)CC(NS(=O)(=O)c1cc(S(=O)(=O)c3ccccc3)ccc1C(F)(F)F)C2 (stereo not drawn) [Example 1062, 2-{[2-({[5-(phenylsulfonyl)-2-(trifluoromethyl)phenyl]sulfonyl}amino)-2,3-dihydro-1H-inden-5-yl]oxy}acetamide] | 10 nM | 34 | – | – | – | – | –
Cc1ccc(S(=O)(=O)c2ccccc2)cc1S(=O)(=O)NC1CCN(C(=O)c2ccc3ccccc3c2)CC1 [Example 496, 2-methyl-N-[1-(2-naphthoyl)piperidin-4-yl]-5-(phenylsulfonyl)benzenesulfonamide] | 1400 nM | – | – | – | – | 1.9 | 1
CN(CCNS(=O)(=O)c1cc(S(=O)(=O)c2ccccc2)ccc1C(F)(F)F)C(=O)C1CCCCC1 [Example 846, N-methyl-N-[2-({[5-(phenylsulfonyl)-2-(trifluoromethyl)phenyl]sulfonyl}amino)ethyl]cyclohexanecarboxamide] | 300 nM | 2670 | 3.2 | – | – | – | –
O=C(NCCNS(=O)(=O)c1cc(S(=O)(=O)c2ccccc2)ccc1C(F)(F)F)c1ccccc1 [Example 770, N-[2-({[5-(Phenylsulfonyl)-2-(trifluoromethyl)phenyl]sulfonyl}amino)ethyl]benzamide] | 2700 nM | – | 1.7 | – | – | – | –
CC(C)c1ccc(S(=O)(=O)c2ccc(F)cc2)cc1S(=O)(=O)NCCC#N [Example 664, N-(2-cyanoethyl)-5-[(4-fluorophenyl)sulfonyl]-2-isopropylbenzenesulfonamide] | 1700 nM | 2990 | 3.9 | – | – | – | –
CC(C)(C)OC(=O)N1CCC(CNS(=O)(=O)c2cc(S(=O)(=O)c3ccccc3)ccc2C(F)(F)F)CC1 [Example 896, tert-butyl 4-[({[5-(phenylsulfonyl)-2-(trifluoromethyl)phenyl]sulfonyl}amino)methyl]piperidine-1-carboxylate] | 300 nM | 675 | 2.9 | – | – | – | –
CC(=O)N1CCC(NS(=O)(=O)c2cc(S(=O)(=O)c3ccc(F)cc3)ccc2C)CC1 [Example 585, N-(1-acetylpiperidin-4-yl)-5-[(4-fluorophenyl)sulfonyl]-2-methylbenzenesulfonamide] | 8000 nM | – | – | – | – | 2.7 | 1.1
CNc1ccc(S(=O)(=O)c2ccc(C(C)C)c(S(=O)(=O)NC3CCOCC3)c2)cc1 [Example 358, 2-isopropyl-5-{[4-(methylamino)phenyl]sulfonyl}-N-(tetrahydro-2H-pyran-4-yl)benzenesulfonamide] | 600 nM | – | – | 2.9 | 1 | – | –
CNc1ccc(S(=O)(=O)c2ccc(C)c(S(=O)(=O)NCCCn3ccnc3)c2)cc1 [Example 310, N-[3-(1H-imidazol-1-yl)propyl]-2-methyl-5-{[4-(methylamino)phenyl]sulfonyl}benzenesulfonamide] | 400 nM | – | – | 2.9 | 1.1 | – | –
CSc1ccc(C(=O)N2CCC(NS(=O)(=O)c3cc(S(=O)(=O)c4ccccc4)ccc3C(F)(F)F)CC2)cc1 [Example 1050, N-{1-[4-(methylthio)benzoyl]piperidin-4-yl}-5-(phenylsulfonyl)-2-(trifluoromethyl)benzenesulfonamide] | 170 nM | 660 | – | – | – | – | –
CCc1ccc(S(=O)(=O)c2ccccc2)cc1S(=O)(=O)NCCCN(C)C [Example 228, N-[3-(dimethylamino)propyl]-2-ethyl-5-(phenylsulfonyl)benzenesulfonamide] | 8000 nM and 15000 nM | – | – | 3.3 | 1.2 | – | –
CC(C)c1ccc(S(=O)(=O)c2ccc(F)cc2)cc1S(=O)(=O)NC[C@H](C)c1ccccc1 [Example 443, 5-[(4-fluorophenyl)sulfonyl]-2-isopropyl-N-[(2R)-2-phenylpropyl]benzenesulfonamide] | 600 nM | – | – | 2.5 | 1.1 | – | –
CCCc1ccc(S(=O)(=O)c2ccc(F)cc2)cc1S(=O)(=O)NCCc1ccccc1 [Example 559, 5-[(4-fluorophenyl)sulfonyl]-N-(2-phenylethyl)-2-propylbenzenesulfonamide] | 1200 nM | – | – | – | – | 2.3 | 1
O=S(=O)(NCCc1cccnc1)c1cc(S(=O)(=O)c2cccc(Cl)c2)ccc1C(F)(F)F [Example 755, 5-[(3-chlorophenyl)sulfonyl]-N-(2-pyridin-3-ylethyl)-2-(trifluoromethyl)benzenesulfonamide] | 160 nM | 1430 | 3.8 | – | – | – | –

— patent US20060276464A1, “Diarylsulfone sulfonamides and use thereof” (Wyeth, priority 2005, published 2006)
